The results in this text go back to patent publication US20160130226A1, “SPIRO-SUBSTITUTED OXINDOLE DERIVATIVES HAVING AMPK ACTIVITY” (BOEHRINGER INGELHEIM INTERNATIONAL GMBH, priority 2013, published 2016).

T1 sequence (Q9Y478 2-270 limits assumed): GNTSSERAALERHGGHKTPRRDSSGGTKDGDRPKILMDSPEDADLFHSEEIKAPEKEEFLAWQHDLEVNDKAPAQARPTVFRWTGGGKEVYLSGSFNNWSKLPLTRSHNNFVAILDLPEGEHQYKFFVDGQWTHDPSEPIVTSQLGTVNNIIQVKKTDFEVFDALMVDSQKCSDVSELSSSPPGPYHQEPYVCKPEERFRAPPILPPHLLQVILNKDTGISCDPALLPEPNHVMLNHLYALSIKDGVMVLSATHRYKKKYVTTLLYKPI
T1 sequence (Q13131 whole entry): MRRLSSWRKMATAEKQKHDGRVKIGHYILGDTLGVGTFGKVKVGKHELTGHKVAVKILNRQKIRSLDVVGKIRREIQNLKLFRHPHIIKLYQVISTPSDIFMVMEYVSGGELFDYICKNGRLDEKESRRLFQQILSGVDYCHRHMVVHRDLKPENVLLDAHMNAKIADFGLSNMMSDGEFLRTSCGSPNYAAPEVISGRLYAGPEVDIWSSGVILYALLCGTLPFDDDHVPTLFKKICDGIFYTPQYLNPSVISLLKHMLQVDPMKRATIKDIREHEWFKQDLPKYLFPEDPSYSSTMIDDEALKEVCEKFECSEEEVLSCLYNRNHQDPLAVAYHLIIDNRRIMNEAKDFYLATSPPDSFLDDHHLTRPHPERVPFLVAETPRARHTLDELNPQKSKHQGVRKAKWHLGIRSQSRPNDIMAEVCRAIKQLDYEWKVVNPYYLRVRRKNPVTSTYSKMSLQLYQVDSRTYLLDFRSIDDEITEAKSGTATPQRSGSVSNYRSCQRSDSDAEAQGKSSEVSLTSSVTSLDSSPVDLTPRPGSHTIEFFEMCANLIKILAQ
T1 sequence (P54619 whole entry partner): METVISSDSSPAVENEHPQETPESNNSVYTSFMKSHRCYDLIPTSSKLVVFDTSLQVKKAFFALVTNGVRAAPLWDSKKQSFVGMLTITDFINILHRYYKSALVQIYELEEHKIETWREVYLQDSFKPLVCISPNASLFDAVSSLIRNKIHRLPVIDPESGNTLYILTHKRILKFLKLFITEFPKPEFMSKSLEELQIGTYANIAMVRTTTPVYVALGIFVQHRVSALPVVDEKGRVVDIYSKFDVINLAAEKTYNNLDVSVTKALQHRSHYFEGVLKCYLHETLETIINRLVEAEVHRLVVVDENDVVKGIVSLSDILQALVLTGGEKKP

The first assay has as its target T1, AMPK beta 1 (Homo sapiens, UniProt Q13131+Q9Y478).
T1 construct: in-cell-ELISA for phospho-ACC (Acetyl-CoA carboxylase 1) in HepG2 cells (liver); endogenous in cells; host or cells: HepG2 (assignment to the beta 1 column inferred)
In words: in-cell-ELISA for phospho-ACC: activation of AMPK, beta 1 (HepG2 cells / C2C12 myotubes). The format is cell-based. To be noted: 2 h, 3 μM, percentage activation over vehicle control, read-out: Percentage activation of beta 1 at given concentration. Here is the method:
Activation of AMPK by various compounds were measured using in-cell-ELISA for phospho-ACC (Acetyl-CoA carboxylase 1) in HepG2 cells (liver) and fully differentiated myotubes (C2C12 cells) grown in 96 well plate. Cells were treated with 1 μM, 3 μM or 10 μM of the molecule (Example) for 2 h in serum free DMEM media. After methanol fixation, cells were blocked with BSA followed by addition of anti-phospho ACC antibody (Cell Signaling) and HRP conjugated secondary antibody. Absorbance values taken at 450 nm were normalized with total DNA (Hoechest stain). Results were expressed as percentage activation over vehicle control.
Percentage activation at compound (Example) concentration of 1, 3 or 10 μM for compounds according to the invention are shown in the following table. The number of the compound corresponds to the number of the Example (Ex) in the experimental section.
For the compound `Cc1ccc(C2CC23C(=O)Nc2cc(F)c(-c4ccc(-c5ccncc5)cc4)cc23)cc1C(=O)O` (stereo not shown) [Example 81], the activation at 3 µM is 55%.
Take `COCN1C(=O)C2(CC2c2ccc(C)c(C(=O)O)c2)c2cc(-c3ccc(-c4ccncc4)cc3)c(Cl)cc21` (stereo not shown) [Example 99]: the activation at 3 µM stood at 66%.
On the same count and under the same terms, then `Cc1ccc(C2CC23C(=O)N(C)c2cc(Cl)c(-c4ccc(-c5ccncc5)cc4)cc23)cc1C(=O)O` (stereo not shown) [Example 100], with 134%; and `Cc1ccc(C2CC23C(=O)N(C(C)C)c2cc(Cl)c(-c4ccc(-c5ccncc5)cc4)cc23)cc1C(=O)O` (stereo not shown) [Example 104], with 56%; and `Cc1ccc(C2CC23C(=O)N(CCO)c2cc(Cl)c(-c4ccc(-c5ccncc5)cc4)cc23)cc1C(=O)O` (stereo not shown) [Example 105], with 81%.
For the compound `CCN1C(=O)C2(CC2c2ccc(OC)c(C(=O)O)c2)c2cc(-c3ccc(-c4ccncc4)cc3)c(Cl)cc21` (stereo not shown) [Example 106], the activation at 3 µM came to 99%.
Take `Cc1ccc(C2CC23C(=O)N(CC2CC2)c2cc(Cl)c(-c4ccc(-c5ccncc5)cc4)cc23)cc1C(=O)O` (stereo not shown) [Example 109]: the activation at 3 µM is 83%.
Take `CCN1C(=O)C2(CC2c2ccc(OC)c(CC(=O)O)c2)c2cc(-c3ccc(-c4ccncc4)cc3)c(Cl)cc21` (stereo not shown) [Example 110]: the activation at 3 µM came out at 58%.
Take `CN1C(=O)C2(CC2c2ccc(C(C)(C)C(=O)O)cc2)c2cc(-c3ccc(-c4ccncc4)cc3)c(Cl)cc21` (stereo not shown) [Example 112]: the activation at 3 µM was 30%.

Staying with this assay, now noted: 2 h, 10 μM, percentage activation over vehicle control, read-out: Percentage activation of beta 1 at given concentration.
Consider `COc1ccc(C2CC23C(=O)Nc2cc(Cl)c(-c4ccc(-c5ccncc5)cc4)cc23)cc1C(=O)O` (stereo not shown) [Example 73], for which the activation at 10 µM is 23%.
Take `Cc1ccc(C2CC23C(=O)Nc2cc(Cl)c(-c4ccc(-c5ccccc5)cn4)cc23)cc1C(=O)O` (stereo not shown) [Example 75]: the activation at 10 µM turned out to be 54%.
In the case of `COc1ccc(C2CC23C(=O)Nc2cc(Cl)c(-c4ccc(-c5ccccc5)cn4)cc23)cc1C(=O)O` (stereo not shown) [Example 77], the activation at 10 µM turned out to be 17%.
Regarding `Cc1ccc(C2CC23C(=O)Nc2cc(Cl)c(-c4ccc(-c5ccccn5)cc4)cc23)cc1C(=O)O` (stereo not shown) [Example 78], the activation at 10 µM is 66%.
Consider `Cc1ccc(C2CC23C(=O)Nc2cc(Cl)c(C#Cc4ccncc4)cc23)cc1C(=O)O` (stereo not shown) [Example 79], for which the activation at 10 µM stood at 112%.
`Cc1ccc(C2CC23C(=O)Nc2cc(Cl)c(-c4ccc(-c5ccncc5)cc4)nc23)cc1C(=O)O` (stereo not shown) [Example 83]: the activation at 10 µM amounted to 92%.
Consider `COc1ccc(C2CC23C(=O)Nc2cc(F)c(-c4ccc(-c5ccncc5)cc4)cc23)cc1C(=O)O` (stereo not shown) [Example 84], for which the activation at 10 µM was found to be 75%.
For `Cc1ccc(C2CC23C(=O)Nc2cc(Cl)c(-c4ccc(-c5cnn(C)c5)cc4)cc23)cc1C(=O)O` (stereo not shown) [Example 85], the activation at 10 µM is 127%.
On the same count and under the same terms, to `Cc1ccc(C2CC23C(=O)Nc2cc(Cl)c(-c4ccc(-c5ccccc5S(C)(=O)=O)cc4)cc23)cc1C(=O)O` (stereo not shown) [Example 87] belongs 47%.
In the case of `CN(C)c1cc(-c2ccc(-c3cc4c(cc3Cl)NC(=O)C43CC3c3cccc(CC(=O)O)c3)cc2)ccn1` (stereo not shown) [Example 88], the activation at 10 µM came out at 132%.
For the compound `Cc1ccc(C2CC23C(=O)Nc2cc(Cl)c(S(=O)(=O)NC4CC4)cc23)cc1C(=O)O` (stereo not shown) [Example 90], the activation at 10 µM was determined as 25%.
Take `Cc1ccc(C2CC23C(=O)Nc2cc(Cl)c(S(=O)(=O)NC4CCC4)cc23)cc1C(=O)O` (stereo not shown) [Example 91]: the activation at 10 µM is 10%.
Same read-out and setting: to `Cc1ccc(C2CC23C(=O)Nc2cc(Cl)c(S(=O)(=O)Nc4ccccc4O)cc23)cc1C(=O)O` (stereo not shown) [Example 92] belongs 16%; to `Cc1ccc(C2CC23C(=O)Nc2cc(Cl)c(-c4ccc5cc[nH]c5c4)cc23)cc1C(=O)O` (stereo not shown) [Example 93], 51%; to `Cc1ccc(C2CC23C(=O)Nc2cc(Cl)c(-c4ccc5[nH]ccc5c4)cc23)cc1C(=O)O` (stereo not shown) [Example 94], 137%.
Regarding `CCN1C(=O)C2(CC2c2ccc(C)c(CC(=O)O)c2)c2cc(-c3ccc(-c4ccncc4)cc3)c(Cl)cc21` (stereo not shown) [Example 113], the activation at 10 µM was 51%.
